Test results from patent US10577360B2, “Arylamide derivatives having multimodal activity against pain” (ESTEVE PHARMACEUTICALS, S.A., priority 2016, dated 2020).
Where two headings read alike, the source gives them in different places.

Biological target: Human α2δ-1 subunit of Cav2.2 calcium channel (Homo sapiens (Human), UniProt P54289)
Assay: Human α2δ-1 subunit of Cav2.2 calcium channel assay ([3H]-Gabapentin binding)
[1] = [3H]-Gabapentin binding, read-out: α2δ − 1 (Ki)

Chain of Human α2δ-1 subunit of Cav2.2 calcium channel (P54289 25-1103): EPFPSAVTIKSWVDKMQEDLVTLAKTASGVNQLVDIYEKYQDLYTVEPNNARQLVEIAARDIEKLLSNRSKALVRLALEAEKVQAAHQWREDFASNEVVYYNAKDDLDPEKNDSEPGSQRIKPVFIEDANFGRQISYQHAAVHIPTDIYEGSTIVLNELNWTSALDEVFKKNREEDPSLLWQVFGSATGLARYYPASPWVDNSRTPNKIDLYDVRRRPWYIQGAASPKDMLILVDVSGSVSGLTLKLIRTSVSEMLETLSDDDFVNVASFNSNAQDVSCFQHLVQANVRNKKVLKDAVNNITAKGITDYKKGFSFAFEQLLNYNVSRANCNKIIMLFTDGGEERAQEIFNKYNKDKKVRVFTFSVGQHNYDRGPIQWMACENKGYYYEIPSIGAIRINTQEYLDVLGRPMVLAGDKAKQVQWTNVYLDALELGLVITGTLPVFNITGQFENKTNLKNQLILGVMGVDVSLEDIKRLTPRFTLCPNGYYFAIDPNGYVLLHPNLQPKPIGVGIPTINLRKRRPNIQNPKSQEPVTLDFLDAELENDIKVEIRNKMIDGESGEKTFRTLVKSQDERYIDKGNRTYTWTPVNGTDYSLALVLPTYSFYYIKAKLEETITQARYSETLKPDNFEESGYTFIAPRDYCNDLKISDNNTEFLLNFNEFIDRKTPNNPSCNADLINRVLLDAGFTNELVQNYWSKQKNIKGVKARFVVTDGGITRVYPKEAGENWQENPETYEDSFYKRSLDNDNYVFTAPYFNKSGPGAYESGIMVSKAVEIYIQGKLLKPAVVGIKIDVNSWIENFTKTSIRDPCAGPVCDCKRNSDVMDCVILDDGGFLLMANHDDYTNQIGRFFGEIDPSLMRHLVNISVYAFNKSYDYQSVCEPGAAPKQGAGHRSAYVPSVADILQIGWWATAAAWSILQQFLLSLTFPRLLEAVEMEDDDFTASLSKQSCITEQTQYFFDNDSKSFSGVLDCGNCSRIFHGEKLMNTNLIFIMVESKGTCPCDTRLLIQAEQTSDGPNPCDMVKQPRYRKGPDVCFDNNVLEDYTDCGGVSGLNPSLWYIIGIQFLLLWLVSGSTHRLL

With CN1CCCC(N(C(=O)c2cccs2)c2ccn(-c3ccccc3)n2)CC1 (stereo not drawn) [Example 39, N-(1-Methylazepan-4-yl)-N-(1-phenyl-1H-pyrazol-3-yl)thiophene-2-carboxamide] as the compound, how does the Ki read?
The Ki was 0.1 to 0.5 µM.

How did the Ki [1] turn out when Cc1nnc(-c2cccc(-n3ccc(N(C(=O)c4cccs4)[C@H]4CC[C@H](N(C)C)CC4)n3)c2)o1 [Example 149, N-[(1r,4r)-4-(Dimethylamino)cyclohexyl]-N-{1-[3-(5-methyl-1,3,4-oxadiazol-2-yl)phenyl]-1H-pyrazol-3-yl}thiophene-2-carboxamide] was run?
Its Ki is > 5 µM.

For Cc1nnc(-c2cccc(-n3ccc(N(C(=O)c4cccc(O)c4)[C@H]4CC[C@H](N(C)C)CC4)n3)c2)o1 [Example 150, N-[(1r,4r)-4-(Dimethylamino)cyclohexyl]-3-hydroxy-N-{1-[3-(5-methyl-1,3,4-oxadiazol-2-yl)phenyl]-1H-pyrazol-3-yl}benzamide], which Ki [1] is on record?
Its Ki is > 5 µM.

With Cc1nnc(-c2cccc(-n3ccc(N(C(=O)c4cccs4)[C@H]4CC[C@H](N(C)Cc5ccccc5)CC4)n3)c2)o1 [Example 151, N-{(1r,4r)-4-[Benzyl(methyl)amino]cyclohexyl}-N-{1-[3-(5-methyl-1,3,4-oxadiazol-2-yl)phenyl]-1H-pyrazol-3-yl}thiophene-2-carboxamide] as the compound, how does the Ki [1] read?
Its Ki is > 5 µM.

O=C(c1cccs1)N(CCNCc1ccccc1)c1ccn(-c2ccccc2)n1 [Example 55, N-[2-(Benzylamino)ethyl]-N-(1-phenyl-1H-pyrazol-3-yl)thiophene-2-carboxamide] was tested. Which Ki did it give?
Its Ki is 0.5 to 5 µM.

CN(C)C1CCC(N(C(=O)c2cccs2)c2ccn(-c3ccccc3)n2)CC1 (stereo not drawn) [Example 127, N-[4-(Dimethylamino)cyclohexyl]-N-(1-phenyl-1H-pyrazol-3-yl)thiophene-2-carboxamide] was tested. Which Ki [1] did it give?
Its Ki is > 5 µM.

With CN(CCN(C(=O)c1cccs1)c1ccn(-c2ccccc2)n1)Cc1cccnc1 [Example 65] as the compound, how does the Ki [1] read?
Its Ki is 0.5 to 5 µM.

Which Ki [1] does the source give for Cc1nnc(-c2cccc(-n3ccc(N(C(=O)c4cccc(O)c4)[C@H]4CC[C@@H](N(C)Cc5ccccc5)CC4)n3)c2)o1 [Example 154, N-{(1s,4s)-4-[Benzyl(methyl)amino]cyclohexyl}-3-hydroxy-N-{1-[3-(5-methyl-1,3,4-oxadiazol-2-yl)phenyl]-1H-pyrazol-3-yl}benzamide] here?
Its Ki is > 5 µM.

How did the Ki turn out when O=C(c1cccs1)N(CCCNCc1ccccc1)c1ccn(-c2ccccc2)n1 [Example 56, N-[3-(Benzylamino)propyl]-N-(1-phenyl-1H-pyrazol-3-yl)thiophene-2-carboxamide] was run?
Its Ki is 0.5 to 5 µM.

With CCN(C)CCN(C(=O)c1cccs1)c1ccn(-c2ccccc2)n1 [Example 63] as the compound, how does the Ki read?
The Ki was 0.5 to 5 µM.

How did the Ki turn out when CCNCCN(C(=O)c1cccs1)c1ccn(-c2ccccc2)n1 [Example 68, N-[2-(Ethylamino)ethyl]-N-(1-phenyl-1H-pyrazol-3-yl)thiophene-2-carboxamide] was run?
Its Ki is 0.5 to 5 µM.

For CNCCN(C(=O)c1cccs1)c1ccn(-c2ccccc2)n1 [Example 57, N-[2-(Methylamino)ethyl]-N-(1-phenyl-1H-pyrazol-3-yl)thiophene-2-carboxamide], which Ki is on record?
The Ki was 0.5 to 5 µM.

CN(Cc1ccccc1)C1CCC(N(C(=O)c2cccs2)c2ccn(-c3ccccc3)n2)CC1 (stereo not drawn) [Example 128, N-{4-[Benzyl(methyl)amino]cyclohexyl}-N-(1-phenyl-1H-pyrazol-3-yl)thiophene-2-carboxamide] was tested. Which Ki [1] did it give?
Its Ki is > 5 µM.

How did the Ki [1] turn out when CN(CCN(C(=O)c1cccs1)c1ccn(-c2ccccc2)n1)Cc1ccncc1 [Example 64, N-{2-[Methyl(pyridin-4-ylmethyl)amino]ethyl}-N-(1-phenyl-1H-pyrazol-3-yl)thiophene-2-carboxamide] was run?
Its Ki is > 5 µM.

How did the Ki turn out when O=C(c1cccs1)N(c1ccn(-c2ccccc2)n1)C1CCCNC1 (stereo not drawn) [Example 53, N-(1-Phenyl-1H-pyrazol-3-yl)-N-(piperidin-3-yl)thiophene-2-carboxamide] was run?
Its Ki is 0.5 to 5 µM.

Which Ki [1] does the source give for Cc1nnc(-c2cccc(-n3ccc(N(C(=O)c4cccc(O)c4)[C@H]4CC[C@H](N(C)Cc5ccccc5)CC4)n3)c2)o1 [Example 153, N-{(1r,4r)-4-[Benzyl(methyl)amino]cyclohexyl}-3-hydroxy-N-{1-[3-(5-methyl-1,3,4-oxadiazol-2-yl)phenyl]-1H-pyrazol-3-yl}benzamide] here?
The Ki was > 5 µM.

With Cc1nnc(-c2cccc(-n3ccc(N(C(=O)c4cccs4)[C@H]4CC[C@@H](N(C)Cc5ccccc5)CC4)n3)c2)o1 [Example 152, N-{(1s,4s)-4-[Benzyl(methyl)amino]cyclohexyl}-N-{1-[3-(5-methyl-1,3,4-oxadiazol-2-yl)phenyl]-1H-pyrazol-3-yl}thiophene-2-carboxamide] as the compound, how does the Ki [1] read?
The Ki was > 5 µM.

Which Ki does the source give for CN(CCN(C(=O)c1cccs1)c1ccn(-c2ccccc2)n1)Cc1ccccc1 [Example 61, N-{2-[Benzyl(methyl)amino]ethyl}-N-(1-phenyl-1H-pyrazol-3-yl)thiophene-2-carboxamide] here?
The Ki was 0.5 to 5 µM.

How did the Ki (read-out: α2δ − 1 (Ki)) turn out when CN1CCCC(N(C(=O)c2cccs2)c2ccn(-c3ccccc3)n2)C1 (stereo not drawn) [Example 67, N-(1-Methylpiperidin-3-yl)-N-(1-phenyl-1H-pyrazol-3-yl)thiophene-2-carboxamide] was run?
The Ki was > 5 µM.

Which Ki does the source give for Cc1nnc(-c2cccc(-n3ccc(N(CCN(C)Cc4ccccc4)C(=O)c4cccs4)n3)c2)o1 [Example 69, N-{2-[Benzyl(methyl)amino]ethyl}-N-{1-[3-(5-methyl-1,3,4-oxadiazol-2-yl)phenyl]-1H-pyrazol-3-yl}thiophene-2-carboxamide] here?
Its Ki is 0.1 to 0.5 µM.

With CN(CCCN(C(=O)c1cccs1)c1ccn(-c2ccccc2)n1)Cc1ccccc1 [Example 62, N-{3-[Benzyl(methyl)amino]propyl}-N-(1-phenyl-1H-pyrazol-3-yl)thiophene-2-carboxamide] as the compound, how does the Ki read?
The Ki was 0.5 to 5 µM.
